Experimental data as given in the supplement of paper PMC10627819.

Key:
[1] = test system: S. aureus DSM 20231; assay: fitness (endpoint OD595 vs no drug) (fraction); higher = more growth
Method in brief: (§1)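 Growth medium was TSB, LB Lennox or CY, and plates were kept at 37 °C. Inoculation was at OD595 0.01 in 384-well plates, at 30 µl per well or 55 µl for S. pneumoniae. OD595 was monitored every 30 min for 14 h and background-subtracted using the first reading. Fitness is the optical density on entering stationary phase divided by the robust mean of no-drug controls, with values capped at 1.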

[2] = test system: S. aureus Newman; assay: as above
Method in brief: as §1

[3] = test system: B. subtilis 168; assay: Bliss interaction score (quartile over a dose matrix) (fitness difference); higher = more antagonism (negative = synergy)
Method in brief: (§2)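 Each OD595 reading at entry into stationary phase was scaled to the robust mean of the untreated wells on its plate, with a ceiling of 1. These ratios define fitness, and single-drug fitness was inferred from combinations. The Bliss score compares observed fitness with the product-based expectation and is reported as quartiles across all replicate types, technical, biological and donor/recipient.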

[4] = test system: S. aureus DSM 20231; assay: as above
Method in brief: as §2

[5] = test system: S. aureus Newman; assay: as above
Method in brief: as §2

[6] = test system: S. pneumoniae D39V; assay: as above
Method in brief: as §2
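Throughout, for Bliss interaction score (quartile over a dose matrix): first quartile when negative (synergy) and third quartile when positive (antagonism).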
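Throughout, for fitness (endpoint OD595 vs no drug): OD595 on entry to stationary phase over no-drug wells; at most 1.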

CCCCCCCCCC(=O)N[C@H]1[C@H](Oc2c3cc4cc2Oc2ccc(cc2Cl)[C@@H](O[C@@H]2O[C@H](CO)[C@@H](O)[C@H](O)[C@H]2NC(C)=O)[C@@H]2NC(=O)[C@H](NC(=O)[C@@H]4NC(=O)[C@H]4NC(=O)[C@@H](Cc5ccc(c(Cl)c5)O3)NC(=O)[C@H](N)c3ccc(O)c(c3)Oc3cc(O)cc4c3)c3ccc(O)c(c3)-c3c(O[C@H]4O[C@H](CO)[C@@H](O)[C@H](O)[C@@H]4O)cc(O)cc3[C@@H](C(=O)O)NC2=O)O[C@H](CO)[C@@H](O)[C@@H]1O [Teicoplanin] + CC1=C\[C@@H](O)CC(=O)Cc2nc(co2)C(=O)N2CCC=C2C(=O)O[C@H](C(C)C)[C@H](C)/C=C/C(=O)NC\C=C\1 [Virginiamycin M1]
fitness, [1], main component drawn
Conditions	first compound 0.1562 µg/mL	first compound 0.3125 µg/mL	first compound 0.625 µg/mL
partner 0.0625 µg/mL	0.996	≥ 1	≥ 1
partner 0.125 µg/mL	≥ 1	≥ 1	≥ 1
partner 0.25 µg/mL	≥ 1	≥ 1	≥ 1

fitness, one replicate, main component drawn
Conditions	first compound 0.1562 µg/mL	first compound 0.3125 µg/mL	first compound 0.62 µg/mL	first compound 0.625 µg/mL	first compound 1.24 µg/mL	first compound 2.48 µg/mL
[1], partner 0.5 µg/mL	≥ 1	≥ 1	–	≥ 1	–	–
[1], partner 1 µg/mL	0.864	0.861	–	≥ 1	–	–
[2], partner 0.0625 µg/mL	≥ 1	0.97	0.773	0.843	0.78	0.473
[2], partner 0.125 µg/mL	≥ 1	≥ 1	0.784	0.774	0.764	0.529
[2], partner 0.25 µg/mL	≥ 1	≥ 1	0.831	0.839	0.766	0.486
[2], partner 0.5 µg/mL	0.945	0.989	–	≥ 1	–	–
[2], partner 1 µg/mL	≥ 1	0.971	–	≥ 1	–	–
[2], partner 2 µg/mL	0.876	0.951	–	≥ 1	–	–

main component drawn
Conditions	Bliss interaction score
[3]	0.117
[4]	0.101
[5]	0.0746
[6]	0.262

O=C(N[C@H](CO)[C@H](O)c1ccc([N+](=O)[O-])cc1)C(Cl)Cl [Chloramphenicol] + CN[C@H](CC(C)C)C(=O)N[C@H]1C(=O)N[C@@H](CC(N)=O)C(=O)N[C@H]2C(=O)N[C@H]3C(=O)N[C@H](C(=O)N[C@H](C(=O)O)c4cc(O)cc(O)c4-c4cc3ccc4O)[C@H](O)c3ccc(c(Cl)c3)Oc3cc2cc(c3O[C@@H]2O[C@H](CO)[C@@H](O)[C@H](O)[C@H]2O[C@H]2C[C@](C)(N)[C@H](O)[C@H](C)O2)Oc2ccc(cc2Cl)[C@H]1O [Vancomycin]
fitness
Conditions	first compound 0.75 µg/mL	first compound 1.5 µg/mL	first compound 3 µg/mL
[1], partner 0.1875 µg/mL	0.669	0.608	0.165
[1], partner 0.375 µg/mL	0.7	0.654	0.142
[1], partner 0.75 µg/mL	–	0.652	0.15
[2], partner 0.1875 µg/mL	0.874	–	–
[2], partner 0.375 µg/mL	0.877	0.607	–
[2], partner 0.75 µg/mL	0.836	0.634	0.23

Conditions	Bliss interaction score
[3]	-0.0535
[4]	0.07
[5]	0.079
[6]	-0.0896

CCC[C@@H]1C[C@@H](C(=O)N[C@@H]([C@H]2O[C@H](SC)[C@H](O)[C@@H](O)[C@H]2O)[C@H](C)Cl)N(C)C1 [Clindamycin] + CCCCCCCCCC(=O)N[C@@H]1[C@H]([C@@H]([C@H](O[C@H]1OC2=C3C=C4C=C2OC5=C(C=C(C=C5)[C@H]([C@H]6C(=O)N[C@@H](C7=C(C(=CC(=C7)O)OC8[C@H]([C@H]([C@@H]([C@H](O8)CO)O)O)O)C9=C(C=CC(=C9)[C@H](C(=O)N6)NC(=O)[C@@H]4NC(=O)[C@@H]1C2=CC(=CC(=C2)OC2=C(C=CC(=C2)[C@H](C(=O)N[C@H](CC2=CC(=C(O3)C=C2)Cl)C(=O)N1)N)O)O)O)C(=O)O)O[C@H]1[C@@H]([C@H]([C@@H]([C@H](O1)CO)O)O)NC(=O)C)Cl)CO)O)O [Teicoplanin]
fitness, main component drawn
Conditions	partner 0.1562 µg/mL	partner 0.3125 µg/mL	partner 0.625 µg/mL
[1], first compound 0.125 µg/mL	0.0489	0.0449	0.0526
[2], first compound 0.0312 µg/mL	0.679	0.864	0.854
[2], first compound 0.0625 µg/mL	0.448	0.431	0.483
[2], first compound 0.125 µg/mL	0.0629	0.0636	0.0614

fitness, [2], one replicate, main component drawn
Conditions	first compound 0.0312 µg/mL	first compound 0.0625 µg/mL	first compound 0.125 µg/mL
partner 0.62 µg/mL	0.86	0.74	0.358
partner 1.24 µg/mL	0.938	0.839	0.307
partner 2.48 µg/mL	0.755	0.726	0.154

main component drawn
Conditions	Bliss interaction score
[3]	-0.117
[4]	0.0389
[5]	0.137
[6]	-0.0604

O=C(N[C@H](CO)[C@H](O)c1ccc([N+](=O)[O-])cc1)C(Cl)Cl [Chloramphenicol] + CN[C@@H]1[C@H](O)[C@H](NC)[C@H]2O[C@@]3(O)C(=O)C[C@@H](C)O[C@H]3O[C@@H]2[C@H]1O [Spectinomycin]
fitness
Conditions	first compound 0.75 µg/mL	first compound 1.5 µg/mL	first compound 3 µg/mL
[1], partner 4 µg/mL	0.556	0.539	0.12
[1], partner 8 µg/mL	0.665	0.511	0.117
[1], partner 16 µg/mL	0.657	0.376	0.15
[2], partner 4 µg/mL	0.725	0.441	0.207
[2], partner 8 µg/mL	0.722	0.42	0.172
[2], partner 16 µg/mL	–	–	0.0732

fitness, one replicate
Conditions	first compound 0.75 µg/mL	first compound 1.5 µg/mL	first compound 3 µg/mL
[1], partner 32 µg/mL	0.493	0.259	0.0743
[1], partner 64 µg/mL	0.0559	0.0436	0.0235
[2], partner 32 µg/mL	0.155	0.0442	0.0229
[2], partner 64 µg/mL	0.0289	0.0929	0.0827

Conditions	Bliss interaction score
[3]	-0.0556
[4]	-0.0533
[5]	-0.107
[6]	-0.0595

O=C(N[C@H](CO)[C@H](O)c1ccc([N+](=O)[O-])cc1)C(Cl)Cl [Chloramphenicol] + COc1ccc(C[C@H](N)C(=O)N[C@H]2[C@@H](O)[C@H](n3cnc4c(N(C)C)ncnc43)O[C@@H]2CO)cc1 [Puromycin]
fitness
Conditions	first compound 0.75 µg/mL	first compound 1.5 µg/mL	first compound 3 µg/mL
[1], partner 0.39 µg/mL	0.764	–	0.11
[1], partner 0.78 µg/mL	0.759	0.585	0.0684
[1], partner 1.56 µg/mL	0.782	0.455	–
[2], partner 0.39 µg/mL	0.764	0.502	0.145
[2], partner 0.78 µg/mL	0.777	0.501	0.121
[2], partner 1.56 µg/mL	0.807	0.501	–

fitness, [1], one replicate
Conditions	first compound 0.75 µg/mL	first compound 1.5 µg/mL	first compound 3 µg/mL
partner 3.12 µg/mL	0.771	0.231	0.0598
partner 6.24 µg/mL	0.387	–	0.0594

Conditions	Bliss interaction score
[3]	-0.0629
[4]	0.0724
[5]	-0.111
[6]	-0.0967

O=C(N[C@H](CO)[C@H](O)c1ccc([N+](=O)[O-])cc1)C(Cl)Cl [Chloramphenicol] + Cn1nnc(-c2ccc(-c3ccc(N4C[C@H](CO)OC4=O)cc3F)cn2)n1 [Tedizolid]
fitness
Conditions	partner 0.0625 µg/mL	partner 0.125 µg/mL	partner 0.25 µg/mL
[1], first compound 0.75 µg/mL	0.584	0.538	0.189
[1], first compound 1.5 µg/mL	0.412	0.285	0.168
[1], first compound 3 µg/mL	0.0827	0.07	0.0466
[2], first compound 3 µg/mL	–	0.095	0.0603

Conditions	Bliss interaction score
[3]	-0.101
[4]	-0.157
[5]	-0.179
[6]	-0.068

O=C(N[C@H](CO)[C@H](O)c1ccc([N+](=O)[O-])cc1)C(Cl)Cl [Chloramphenicol] + CC1=C\[C@@H](O)CC(=O)Cc2nc(co2)C(=O)N2CCC=C2C(=O)O[C@H](C(C)C)[C@H](C)/C=C/C(=O)NC\C=C\1 [Virginiamycin M1]
fitness
Conditions	first compound 0.75 µg/mL	first compound 1.5 µg/mL	first compound 3 µg/mL
[1], partner 0.0625 µg/mL	0.735	0.555	0.084
[1], partner 0.125 µg/mL	0.649	0.569	–
[1], partner 0.25 µg/mL	0.789	0.609	0.12
[2], partner 0.0625 µg/mL	0.77	0.467	0.144
[2], partner 0.125 µg/mL	0.777	0.474	0.151
[2], partner 0.25 µg/mL	0.792	0.488	0.179

fitness, one replicate
Conditions	first compound 0.75 µg/mL	first compound 1.5 µg/mL	first compound 3 µg/mL
[1], partner 0.5 µg/mL	0.884	0.601	–
[1], partner 1 µg/mL	0.811	0.535	0.149
[2], partner 0.5 µg/mL	0.827	0.609	0.286
[2], partner 1 µg/mL	≥ 1	0.692	0.26
[2], partner 2 µg/mL	0.815	0.683	0.153

Conditions	Bliss interaction score
[3]	0.0462
[4]	-0.0544
[5]	-0.0589
[6]	0.0662

O=C(N[C@H](CO)[C@H](O)c1ccc([N+](=O)[O-])cc1)C(Cl)Cl [Chloramphenicol] + C[n+]1ccc(-c2cc[n+](C)cc2)cc1 [Paraquat]
fitness
Conditions	first compound 0.75 µg/mL	first compound 1.5 µg/mL	first compound 3 µg/mL
[1], partner 1.25 µg/mL	0.684	0.564	0.121
[1], partner 2.5 µg/mL	0.711	0.626	0.159
[1], partner 5 µg/mL	0.688	0.618	0.158
[2], partner 1.25 µg/mL	0.724	0.423	0.164
[2], partner 2.5 µg/mL	0.715	0.429	0.15
[2], partner 5 µg/mL	0.739	0.476	–

Conditions	Bliss interaction score
[3]	0.0402
[4]	0.0604
[5]	-0.058
[6]	0.0595

CCCCCCCCCC(=O)N[C@H]1[C@H](Oc2c3cc4cc2Oc2ccc(cc2Cl)[C@@H](O[C@@H]2O[C@H](CO)[C@@H](O)[C@H](O)[C@H]2NC(C)=O)[C@@H]2NC(=O)[C@H](NC(=O)[C@@H]4NC(=O)[C@H]4NC(=O)[C@@H](Cc5ccc(c(Cl)c5)O3)NC(=O)[C@H](N)c3ccc(O)c(c3)Oc3cc(O)cc4c3)c3ccc(O)c(c3)-c3c(O[C@H]4O[C@H](CO)[C@@H](O)[C@H](O)[C@@H]4O)cc(O)cc3[C@@H](C(=O)O)NC2=O)O[C@H](CO)[C@@H](O)[C@@H]1O [Teicoplanin] + CN[C@H](CC(C)C)C(=O)N[C@H]1C(=O)N[C@@H](CC(N)=O)C(=O)N[C@H]2C(=O)N[C@H]3C(=O)N[C@H](C(=O)N[C@H](C(=O)O)c4cc(O)cc(O)c4-c4cc3ccc4O)[C@H](O)c3ccc(c(Cl)c3)Oc3cc2cc(c3O[C@@H]2O[C@H](CO)[C@@H](O)[C@H](O)[C@H]2O[C@H]2C[C@](C)(N)[C@H](O)[C@H](C)O2)Oc2ccc(cc2Cl)[C@H]1O [Vancomycin]
fitness, main component drawn
Conditions	first compound 0.1562 µg/mL	first compound 0.3125 µg/mL	first compound 0.625 µg/mL
[1], partner 0.1875 µg/mL	0.979	≥ 1	≥ 1
[1], partner 0.375 µg/mL	0.834	≥ 1	0.956
[1], partner 0.75 µg/mL	0.932	≥ 1	0.976
[2], partner 0.1875 µg/mL	≥ 1	≥ 1	0.914
[2], partner 0.375 µg/mL	≥ 1	≥ 1	0.881
[2], partner 0.75 µg/mL	0.992	0.949	0.816

fitness, [2], one replicate, main component drawn
Conditions	first compound 0.62 µg/mL	first compound 1.24 µg/mL	first compound 2.48 µg/mL
partner 0.1875 µg/mL	0.814	0.811	0.418
partner 0.375 µg/mL	0.733	0.757	0.402
partner 0.75 µg/mL	0.734	0.689	0.148

main component drawn
Conditions	Bliss interaction score
[3]	-0.0512
[4]	-0.0576
[5]	0.0485
[6]	0.0981
